Test results reported in patent US20100330028A1, “COMBINATION THERAPY FOR CHRONIC DERMAL ULCERS” (The Board of Regents THe Universityof Texas System, priority 2007, published 2010).
One block for each substance: values may come before it.

Assays:
[1] = system: Human coronary artery endothelial (HCAE) cells; test: Invasion of HCAE cells through Matrigel toward PDGF; assay type: cell-based; conditions: PDGF 10 ng/ml, 22 h
Description: (§1) The design of experiments to measure invasion and migration of endothelial cells toward the angiogenic factor PDGF (platelet-derived growth factor-BB) is shown in FIGS. 7A and 8A respectively. The standard assay used 5×10^4 cells added to the top of the insert in 250 μl of medium. The lower portion of the apparatus contained 750 μl of medium, plus or minus PDGF. […] Transmembrane cell invasion and migration assays were performed using BD FluoroBlok inserts coated with BD Matrigel Matrix (a biologically active basement membrane preparation) or with fibronectin (BD Bioscience, Bedford, Mass.), respectively. […] PDGF [10 ng/ml] (R&D System, Minneapolis, Minn. (PDGF) or medium alone (CTR) were added to the lower chamber of the insert plate as a chemoattractant. The cells were allowed to invade or migrate for 22 hours. Cells were labeled post invasion or post migration with Calcein AM (4 μg/ml) and the fluorescence of the cells that invaded through the BD Matrigel Matrix or migrated to the underside of the insert membrane was measured using a plate reader at 485 nm (excitation) and 530 nm (emission).

[2] = system: Human coronary artery endothelial (HCAE) cells; test: Migration of HCAE cells through fibronectin-coated insert toward PDGF; assay type: cell-based; conditions: PDGF 10 ng/ml, 22 h
Description: as §1

[3] = system: Human coronary artery endothelial (HCAE) cells; test: Migration of HCAE cells through fibronectin-coated insert toward bFGF; assay type: cell-based; conditions: bFGF 10 ng/ml, 22 h
Description: (§2) The design of experiments to measure invasion and migration of endothelial cells toward the angiogenic factor bFGF (basic fibroblast growth factor) is shown in FIGS. 5A and 6A, respectively. The standard assay used 5×10^4 cells added to the top of the insert in 250 μl of medium. The lower portion of the apparatus contained 750 μl of medium, plus or minus bFGF. […] Transmembrane cell invasion and migration assays were performed using BD FluoroBlok (BD Bioscience, Bedford, Mass.) inserts coated with BD Matrigel Matrix (a biologically active basement membrane preparation) or with fibronectin, respectively. […] (R&D System, Minneapolis, Minn.) (FGF) or medium alone (CTR) were added to the lower chamber of the insert plate as a chemoattractant. The cells were allowed to invade or migrate for 22 hours. Cells were labeled post invasion or post migration with Calcein AM (4 μg/ml) and the fluorescence of the cells that invaded through the BD Matrigel Matrix or migrated to the underside of the insert membrane was measured using a plate reader at 485 nm (excitation) and 530 nm (emission).

[4] = system: Human coronary artery endothelial (HCAE) cells; test: Invasion of HCAE cells through Matrigel toward bFGF; assay type: cell-based; conditions: bFGF 10 ng/ml, 22 h
Description: as §2

thrombin receptor [5] = conditions: cited from earlier work
thrombin receptor [6] = conditions: cited from earlier work; remark: listed apart in the source
23C53 = test: Binding of biotin-conjugated thrombin to complementary peptide 23C53
AC-23 = test: Binding of biotin-conjugated thrombin to complementary peptide AC-23
AC-23, sequence (as listed by the source): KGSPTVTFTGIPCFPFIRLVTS

23C53, sequence (as listed by the source): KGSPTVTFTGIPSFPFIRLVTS

Substance: PDGF
- Effect of PDGF on endothelial cell invasion compared to control medium without PDGF [1]: no effect
- Effect of PDGF on endothelial cell migration compared to control (CTR) [2]: no effect

Substance: bFGF: angiogenic factor basic fibroblast growth factor (R&D System)
- Increase of endothelial cell migration by bFGF compared to control medium not containing bFGF [3]: ~40%
- bFGF-induced endothelial cell invasion as % of invasion with control medium (CTR) [4]: ~170%

Substance: p508-530: stimulatory thrombin polypeptide derivative containing fibronectin- and serine protease-homologous domains, residues 508 to 530 of human thrombin
- Binding to thrombin receptors (thrombin receptor [5]): bind to thrombin receptors with high-affinity
- Induction of mitogenesis / mitogenic signals (thrombin receptor [6]): substitute for DIP-alpha-thrombin as an initiator of receptor occupancy-related mitogenic signals

Substance: p519-530: intermediate thrombin peptide derivative, residues 519-530 of human thrombin (QPSVLQVVNLPI; UniProt P00734 519-530, looked up, fragment)
- Induction of mitogenesis / mitogenic signals (thrombin receptor [6]): retains the ability to mediate mitogenesis but to a much lesser degree than p508-530

- Specific binding of biotin-conjugated thrombin to 23C53 (23C53): bind specifically
- Specific binding of biotin-conjugated thrombin to AC23 (AC-23): bind specifically
Substance: thrombin
